Measured values published in patent US20210260225A1, “PROTECTION OF BIOLOGICALLY ACTIVE MOLECULES DURING RADIATION STERILIZATION” (Qiagen Sciences LLC, priority 2018, published 2021).

Experiments:
[1] = test system: white blood cells present in human whole blood samples; assay: Concanavalin A activity after E-beam irradiation (IFN-γ release in whole blood, ELISA); assay type: cell-based; conditions: for Protection of ConA stimulatory activity against E-beam (FIG. 12): 10 mM Cys or 3.0 mM G-SH, E-beam irradiated; for Protective effect on ConA activity, titration of radioprotectant (FIG. 13): 25 kGy E-beam, radioprotectant 1.0 to 10 mM
[2] = test system: T-cells present in a whole human blood sample; assay: Anti-CD3 antibody T-cell stimulatory activity after E-beam irradiation (IFN-γ secretion in whole blood, ELISA); assay type: cell-based; conditions: for Protection of anti-CD3 antibody stimulatory activity against E-beam (FIG. 4): 10 mM Cys or 3.0 mM G-SH in DPBS, E-beam doses up to 25 kGy; for Protective effect on anti-CD3 activity, titration of radioprotectant (FIG. 5): 25 kGy E-beam, radioprotectant 1.0 to 10 mM
Protocol: Anti-CD3 antibody samples were dissolved in Dulbecco's phosphate-buffered saline (DPBS) and diluted to a concentration of 66.7 μg/mL, then exposed to various doses of E-beam irradiation in the presence or absence of 10 mM cysteine (Cys) or 3 mM glutathione (G-SH). The treated antibody samples were tested for their T-cell stimulatory activity by determining their ability to induce interferon-gamma (IFNγ) secretion by T-cells present in a whole human blood sample obtained from a group of six randomly selected donors, using 0.10 μg of anti-CD3 antibody per mL of whole blood in QuantiFERON® (QFN) Nil tubes (QIAGEN, Inc., Germantown, Md.). Following the incubation of the whole blood samples with the anti-CD3 antibody in the QFN Nil tubes, blood processing, plasma harvesting and IFN-γ detection by enzyme-linked immunosorbent assay (ELISA) were performed according to the manufacturer's instructions as found in the QuantiFERON®-TB Gold Plus package insert (QFN-TB Gold Plus, QIAGEN, Inc., Germantown, Md.) except that the plasma samples were diluted 1 to 10 in ELISA kit Green Diluent immediately before testing on 8-point standard curves.

[3] = test system: white blood cells present in human whole blood samples; assay: Pokeweed mitogen activity after E-beam irradiation (IFN-γ release in whole blood, ELISA); assay type: cell-based; conditions: for Protection of PWM stimulatory activity against E-beam (FIG. 10): 10 mM Cys or 3.0 mM G-SH, E-beam irradiated; for Protective effect on PWM activity, titration of radioprotectant (FIG. 11): 25 kGy E-beam, radioprotectant 1.0 to 10 mM
Protocol: Pokeweed Mitogen (PWM) samples were dissolved in DPBS at a concentration of 33.3 μg/mL and treated with various doses of E-beam irradiation in the presence or absence of 10 mM cysteine (Cys) or 3 mM glutathione (G-SH). The treated PWM samples were tested for their biological activity (ability to elicit IFNγ release during an in vitro incubation) on white blood cells present in human whole blood samples, collected from a group of six randomly selected donors, using 1.0 μg of PWM per mL of whole blood in QFN Nil tubes. Following incubation with the PWM samples in the QFN tubes, whole blood sample processing, plasma harvesting and IFN-γ ELISA were performed according to the QuantiFERON®-TB Gold Plus package insert (QFN-TB Gold Plus, QIAGEN, Inc., Germantown, Md.) except that the plasma samples were diluted 1:10 in ELISA kit Green Diluent immediately before testing on 8-point standard curves.

[4] = test system: white blood cells present in human whole blood samples; assay: R848 TLR agonist (NK cell stimulatory) activity after E-beam irradiation (IFN-γ release in whole blood, ELISA); assay type: cell-based; conditions: for Protection of R848 stimulatory activity against E-beam (FIG. 6): 10 mM Cys or 3.0 mM G-SH, E-beam treated; for Protective effect on R848 activity, titration of radioprotectant (FIG. 7): 25 kGy E-beam, radioprotectant 1.0 to 10 mM
Protocol: R848 (resiquimod, CAS 144875-48-9) is a toll-like receptor (TLR) agonist which can stimulate biological responses by natural killer (NK) cells, and its activity can be measured in the […] tubes (QIAGEN, Inc., Germantown, Md.) QFN whole blood culture system. […] Following incubation with the R848 samples in the QFN tubes, whole blood sample processing, plasma harvesting and IFN-γ ELISA were performed according to the QuantiFERON®-TB Gold Plus package insert (QFN-TB Gold Plus, QIAGEN, Inc., Germantown, Md.) except that the plasma samples were diluted 1:10 in ELISA kit Green Diluent immediately before testing on 8-point standard curves.

[5] = test system: white blood cells present in human whole blood samples; assay: QFM (anti-CD3 + R848) stimulatory activity after E-beam irradiation (IFN-γ release in whole blood, ELISA); assay type: cell-based; conditions: for Protection of stimulatory activities of anti-CD3 and R848 against E-beam (FIG. 8): 10 mM Cys or 3.0 mM G-SH, E-beam irradiated; for Protective effect on combined anti-CD3 and R848 activity, titration of radioprotectant (FIG. 9): 25 kGy E-beam, radioprotectant 1.0 to 10 mM
Protocol: Following incubation with the QFM samples in the QFN tubes, whole blood sample processing, plasma harvesting and IFN-γ ELISA were performed according to the QuantiFERON®-TB Gold Plus package insert (QFN-TB Gold Plus, QIAGEN, Inc., Germantown, Md.) except that the plasma samples were diluted 1:10 in ELISA kit Green Diluent immediately before testing on 8-point standard curves.

[6] = test system: whole blood samples; assay: Mitogenic activity of PHA-P formulation with radioprotectant additives, with or without E-Beam (IFN-γ secretion, QuantiFERON ELISA); assay type: cell-based, human; conditions: E-Beam 0.0 kGy; additive 5.0 mM; vs untreated control without additives; 6 donors
[7] = test system: whole blood samples; assay: as above; assay type: cell-based, human; conditions: for Group Mean Percentage of Mitogenic Activity: additive 5.0 mM, vs untreated control without additives; for Group Mean Percentage of Mitogenic Activity / Concentration-dependent protection of PHA-P mitogenic activity (FIG. 1) / PHA-P Formulation Potency with Additives: 6 donors; for Concentration-dependent protection of PHA-P mitogenic activity (FIG. 1): E-beam 25 kGy in solution, cysteine 1.0-50 mM, melatonin 0.2-10 mM; for PHA mitogenic activity, % of PHA control formulation (FIG. 1): E-Beam 25 kGy, control without additive and without sterilization; for PHA-P Formulation Potency with Additives: no irradiation, vs same formulation without additives (100%)
Protocol: Cysteine (closed circles) and melatonin (open circles) were dissolved in the same PHA-P formulation to various final concentrations. The mitogenic activities were determined by measuring IFN-γ secretion in whole blood samples from six blood donors using QuantiFERON® ELISA according to the manufacturer's instructions (QIAGEN, Inc., Germantown, Md.). Group mean percentages of mitogenic activity over controls (PHA-P alone without any additives) are presented.
L-cysteine was dissolved in a PHA-P formulation to 1.0-50 mM. Due to its lower water solubility, melatonin stock solution at 200 mM was first prepared in 100% ethyl alcohol. The stocks were then added into the PHA-P formulation to make final concentrations from 0.2-10 mM. After the E-Beam treatment, potencies of PHA-P formulations were tested with whole blood samples and mitogenic activity was determined using QuantiFERON® ELISA (QIAGEN, Inc., Germantown, Md.) according to the manufacturer's instructions.

[8] = test system: whole blood samples; assay: Storage stability of mitogenic activity of radiation sterilized spray-dried PHA tubes with or without cysteine; assay type: cell-based, human; conditions: 5.0 mM cysteine; E-Beam sterilized; subsequent time points extending beyond eight months post-production
Protocol: QuantiFERON® Mitogen Control blood collection tubes were produced with and without cysteine (5.0 mM final concentration in liquid mitogen formulation) and sterilized with E-Beam radiation. Mitogen tubes' biological (mitogenic) activities were tested over time and are presented as % potency differences of the activity of mitogen tubes formulated with cysteine compared to mitogen tubes formulated without cysteine. Each dot in the figure represents the % activity of group mean at each time point.
Mitogen (spray-dried PHA) tubes were produced and radiation sterilized as described in Example 1, comparing PHA preparations without added cysteine to PHA preparations containing 5.0 mM cysteine. The long-term storage stability of the radioprotective effect of cysteine on the mitogenic activity of spray-dried PHA was also assessed.
Following spray-drying and radiation sterilization the tubes were held for various time periods before being tested for mitogenic activity as described previously.

[9] = test system: whole blood samples; assay: Mitogenic potency of spray-dried PHA in QuantiFERON Mitogen Control blood collection tubes after radiation sterilization (IFN-γ by QuantiFERON ELISA); assay type: cell-based, human; conditions: for PHA mitogenic response, % of control (FIG. 2): control: no radioprotectant, no sterilization, 8 donors
[10] = spray-dried tubes after radiation sterilization, cysteine 5 mM where present

| Molecule | Protection of ConA stimulatory activity against E-beam (FIG. 12) [1] | Protective effect on ConA activity, titration of radioprotectant (FIG. 13) [1] | Protection of anti-CD3 antibody stimulatory activity against E-beam (FIG. 4) [2] | Protective effect on anti-CD3 activity, titration of radioprotectant (FIG. 5) [2] | Protection of PWM stimulatory activity against E-beam (FIG. 10) [3] | Protective effect on PWM activity, titration of radioprotectant (FIG. 11) [3] | Protection of R848 stimulatory activity against E-beam (FIG. 6) [4] | Protective effect on R848 activity, titration of radioprotectant (FIG. 7) [4] | Protection of stimulatory activities of anti-CD3 and R848 against E-beam (FIG. 8) [5] | Protective effect on combined anti-CD3 and R848 activity, titration of radioprotectant (FIG. 9) [5] | Group Mean Percentage of Mitogenic Activity [6] | Group Mean Percentage of Mitogenic Activity ([7]; E-Beam 8.30 kGy) | Group Mean Percentage of Mitogenic Activity ([7]; E-Beam 16.7 kGy) | Group Mean Percentage of Mitogenic Activity ([7]; E-Beam 25.0 kGy) | Concentration-dependent protection of PHA-P mitogenic activity (FIG. 1) [7] | PHA mitogenic response, % of control (FIG. 2) [9, 10] | further results |
| --- | --- | --- | --- | --- | --- | --- | --- | --- | --- | --- | --- | --- | --- | --- | --- | --- | --- |
| N[C@@H](CS)C(=O)O (stereo in doubt) [L-Cysteine, 2-amino-3-sulfhydrylpropanoic acid] | preserved | dose-dependent increase | maintained stimulatory activities | dose-dependent increase | preserved | dose-dependent increase | retained the stimulatory activities | dose-dependent increase | preserved | dose-dependent increase |  |  |  |  |  |  |  |
| N[C@@H](CCC(=O)N[C@@H](CS)C(=O)NCC(=O)O)C(=O)O [Glutathione Reduced, γ-L-Glutamyl-L-cysteinylglycine] | preserved | dose-dependent increase | maintained stimulatory activities | dose-dependent increase | preserved | dose-dependent increase | retained the stimulatory activities | dose-dependent increase | preserved | dose-dependent increase | 116% | 53% | 23% | 10% |  |  | Group Mean Percentage of Mitogenic Activity ([7]; E-Beam 8.30 kGy, listed as reduced glutathione): 53% |
| N[C@@H](CS)C(=O)O [L-Cysteine, 2-amino-3-sulfhydrylpropanoic acid] |  |  |  |  |  |  |  |  |  |  | 99% | 68% | 43% | 26% | dose dependent protection | 72% | Mitogenic activity of tubes with cysteine compared to tubes without cysteine (FIG. 3) [8]: retained relatively higher levels of mitogenic activity; Group Mean Percentage of Mitogenic Activity ([7]; E-Beam 8.30 kGy, listed as L-cysteine): 68%; PHA mitogenic activity, % of PHA control formulation (FIG. 1) ([7]; additive 1.0 mM): 5.9%; PHA mitogenic activity, % of PHA control formulation (FIG. 1) ([7]; additive 10 mM): 38%; PHA-P Formulation Potency with Additives ([7]; additive 50 mM): 101%; PHA-P Formulation Potency with Additives ([7]; additive 50 mM, listed as cysteine): comparable to unsupplemented PHA preparations; PHA mitogenic response, % of control (FIG. 2) ([9]; spray-dried tubes, cysteine 5 mM, no radiation sterilization): 94.8% |
| COc1ccc2[nH]cc(CCNC(C)=O)c2c1 [Melatonin, N-acetyl-5-methoxy tryptamine, reference compound] |  |  |  |  |  |  |  |  |  |  | 111% | 53% | 26% | 7.7% | dose dependent protection |  | Group Mean Percentage of Mitogenic Activity ([7]; E-Beam 8.30 kGy, listed as melatonin): 53%; PHA-P Formulation Potency with Additives ([7]; additive 10 mM): 98.6%; PHA-P Formulation Potency with Additives ([7]; additive 10 mM, listed as melatonin): comparable to unsupplemented PHA preparations |
| phytohemagglutinin [PHA] |  |  |  |  |  |  |  |  |  |  |  |  |  |  |  | 56% | Mitogenic Potency after Tx, E-Beam ([9]; E-beam 16.6-30 kGy, group mean of 11 donors vs same lot of tubes without treatment (100%)): about 55% |
